Results reported in patent US20260240832A1, “USE OF NITROXOLINE COMPOUND IN ENHANCING EFFECT OF ANTIBACTERIAL AGENT” (Jiangsu Yahong Meditech Co., Ltd., priority 2022, published 2026).
Like-named read-outs stand apart in the source and are kept apart here.

System: carbapenem-resistant Acinetobacter baumannii
Experiment: Chessboard microbroth dilution MIC/FIC, compound 1 in combination with polymyxin
Type: cell-based
Settings: for MIC: Acinetobacter baumannii, read-out: Compound 1 MIC alone; for Compound 1 MIC in combination: with polymyxin
Excerpt: This experiment is designed to determine the minimum inhibitory concentration (MIC) of compound 1 in combination with polymyxin against carbapenem-resistant Acinetobacter baumannii and to calculate the fractional inhibitory concentration (FIC) index.
Test bacteria: 10 strains of carbapenem-resistant Acinetobacter baumannii are clinically isolated strains, and are provided by Shanghai Junji Medical Laboratory Co., Ltd.
According to the recommendation of the Clinical and Laboratory Standards Institute (CLSI), the microbroth dilution method designed by the chessboard method was used to determine the minimum inhibitory concentration (MIC) of compound 1 in combination with polymyxin against the above strains, and the fractional inhibitory concentration (FIC) index was calculated.
Compound 1 was dissolved in dimethyl sulfoxide to obtain a stock solution I with a concentration of 51200 mg/L. The stock solution I was subjected to 1:1 gradient dilution with dimethyl sulfoxide to obtain a dilution solution with a concentration range of 51200 to 25 mg/L. The corresponding concentrations were added to sterile water for 100-fold dilution to obtain working solution I with a concentration range of 512 to 0.25 mg/L.
Polymyxin was dissolved in sterile water to obtain a stock solution with a concentration of 5120 mg/L. The polymyxin stock solution was subjected to 1:1 gradient dilution with sterile water to obtain a working solution II with a concentration range of 512 to 0.25 mg/L.
According to the method in Example 1, a drug sensitive plate was prepared with working solution I and working solution II, and the specific process will not be repeated here.
(2) The culture medium of the bacterial solution: Cation-Adjusted Mueller-Hinton Broth (CAMHB), a product of BBL, USA, batch number 9015952.
(3) Formulation method of bacterial solution: According to the direct colony suspension method, the test bacteria cultured overnight were prepared into a 0.5 McFarland turbidity tube using physiological saline. Then, the resulting solution was dilute 100 times with the above culture medium. 100 μL of the resulting bacterial solution was mixed well with the solution (100 μL) in each well of the drug sensitivity plate, and the final inoculation amount was 10^5 CFU/mL.
(4) Culture conditions: Culturing at 35±2° C. for 20 hours in air.
(1) The experimental results were determined according to the standard of CLSI 2020 M100 30th edition.
wherein: FIC≤0.5 indicates synergistic effect; 0.5<FIC≤1.0 indicates additive effect; 1<FIC≤2.0 indicates irrelevant effect; and FIC>2 indicates antagonistic effect.

[1] = strain 18-J11-001, compound 1 + polymyxin
[2] = strain 18-J11-002, compound 1 + polymyxin
[3] = strain 18-J11-034, compound 1 + polymyxin
[4] = strain 18-J11-097, compound 1 + polymyxin
[5] = strain 18-J15-030, compound 1 + polymyxin
[6] = strain 18-J21-095, compound 1 + polymyxin
[7] = strain 18-J24-015, compound 1 + polymyxin
[8] = strain 18-J24-033, compound 1 + polymyxin
[9] = strain 18-J40-021, compound 1 + polymyxin
[10] = strain 18-J51-052, compound 1 + polymyxin

- MIC (strain 18-J11-001): 8 µg/mL
- MIC (strain 18-J11-002): 4 µg/mL
- MIC (strain 18-J11-034): 4 µg/mL
- MIC (strain 18-J11-097): 4 µg/mL
- MIC (strain 18-J15-030): 16 µg/mL
- MIC (strain 18-J21-095): 8 µg/mL
- MIC (strain 18-J24-015): 8 µg/mL
- MIC (strain 18-J24-033): 4 µg/mL
- MIC (strain 18-J40-021): 8 µg/mL
- MIC (strain 18-J51-052): 4 µg/mL
- change of the MIC of polymyxin by the combination (compound 1 + polymyxin): significantly reduce
- Compound 1 MIC in combination (strain 18-J11-001): 0.5 µg/mL
- Compound 1 MIC in combination (strain 18-J11-002): 2 µg/mL
- Compound 1 MIC in combination (strain 18-J11-034): 1 µg/mL
- Compound 1 MIC in combination (strain 18-J11-097): 0.5 µg/mL
- Compound 1 MIC in combination (strain 18-J15-030): 1 µg/mL
- Compound 1 MIC in combination (strain 18-J21-095): 4 µg/mL
- Compound 1 MIC in combination (strain 18-J24-015): 1 µg/mL
- Compound 1 MIC in combination (strain 18-J24-033): 1 µg/mL
- Compound 1 MIC in combination (strain 18-J40-021): 1 µg/mL
- Compound 1 MIC in combination (strain 18-J51-052): 2 µg/mL
SMILES: O=[N+]([O-])c1c(Br)c(Cl)c2cccnc2c1O [Compound 1, 6-bromo-5-chloro-7-nitroquinolin-8-ol]
- effect of the combination (summary of Table 2) (compound 1 + polymyxin): synergistic effect (FIC≤0.5 indicates synergistic effect)
- FIC index [1]: 0.303
- Results [1]: Synergistic
- FIC index [2]: 0.740
- Results [2]: Additive
- FIC index [3]: 0.500
- Results [3]: Synergistic
- FIC index [4]: 0.365
- Results [4]: Synergistic
- FIC index [5]: 0.313
- Results [5]: Synergistic
- FIC index [6]: 0.740
- Results [6]: Additive
- FIC index [7]: 0.375
- Results [7]: Synergistic
- FIC index [8]: 0.500
- Results [8]: Synergistic
- FIC index [9]: 0.250
- Results [9]: Synergistic
- FIC index [10]: 0.750
- Results [10]: Additive
